Results reported in patent US10975057B2, “6-aminopyridin-3-yl pyrazoles as modulators of RORgT” (Janssen Pharmaceutica NV, priority 2018, dated 2021).

Key:
[1] = tested on: IL-17 production by CD4 T cells; assay: cells; conditions: Homo sapiens, 72 h, read-out: Human Th17 Assay, IC50 (μM)
Description: The human Th17 assay tests the effect of RORγt modulatory compounds on IL-17 production by CD4 T cells under conditions which favor Th17 differentiation. Total CD4^+ T cells were isolated from the peripheral blood mononuclear cells (PBMC) of healthy donors using a CD4^+ T cell isolation kit II, following the manufacturer's instructions (Miltenyi Biotec). […] 50 μL of compound at titrated concentrations in DMSO were added into each well at final DMSO concentration at 0.2%. Cells were incubated for 1 hour, then 50 μL of Th17 cell differentiation medium was added to each well. The final concentrations of antibodies and cytokines (R&D Systems) in differentiation medium were: 3×10^6/mL anti-CD3/CD28 beads (prepared using human T cell activation/expansion kit, Miltenyi Biotec), 10 μg/mL anti-IL4, 10 μg/mL anti-IFNγ, 10 ng/mL IL1β, 10 ng/mL IL23, 50 ng/mL IL6, 3 ng/mL TGFβ and 20 U/mL IL2. Cells were cultured at 37° C. and 5% CO2 for 3 days. Supernatants were collected and the accumulated IL-17 in culture was measured by using MULTI-SPOT® Cytokine Plate following manufacture's instruction (Meso Scale Discovery). The plate was read using Sector Imager 6000, and IL-17 concentration was extrapolated from the standard curve. The IC50s were determined by GraphPad.

[2] = tested on: Th17-dependent learned helplessness; conditions: mice; cited from earlier work
obese diabetic mice = conditions: cited from earlier work

Row | Compound | IC50 [1] | also measured
1 | CCn1nc(C(=O)NC[C@]2(O)CC[C@@H](S(C)(=O)=O)CC2)c(Cl)c1-c1cnc(NC(C)(C)CC(F)(F)F)cc1C(C)C [Example 16, 4-Chloro-1-ethyl-N-(((1s,4s)-1-hydroxy-4-(methylsulfonyl)cyclohexyl)methyl)-5-(4-isopropyl-6-((4,4,4-trifluoro-2-methylbutan-2-yl)amino)pyridin-3-yl)-1H-pyrazole-3-carboxamide] | 0.017 µM | –
2 | CCn1nc(C(=O)NC[C@]2(O)CC[C@@H](S(C)(=O)=O)CC2)c(Cl)c1-c1cnc(NC(C)(C)CC(F)(F)F)cc1OC [Example 79, 4-Chloro-1-ethyl-N-(((1s,4s)-1-hydroxy-4-(methylsulfonyl)cyclohexyl)methyl)-5-(4-methoxy-6-((4,4,4-trifluoro-2-methylbutan-2-yl)amino)pyridin-3-yl)-1H-pyrazole-3-carboxamide] | 0.013 µM | –
3 | CCc1cc(NC(C)(C)CC(F)(F)F)ncc1-c1c(Cl)c(C(=O)NC[C@]2(O)CC[C@@H](S(C)(=O)=O)CC2)nn1CC [Example 18, 4-Chloro-1-ethyl-5-(4-ethyl-6-((4,4,4-trifluoro-2-methylbutan-2-yl)amino)pyridin-3-yl)-N-(((1s,4s)-1-hydroxy-4-(methylsulfonyl)cyclohexyl)methyl)-1H-pyrazole-3-carboxamide] | 0.0041 µM | –
4 | CCn1nc(C(=O)NC[C@]2(O)CC[C@@H](S(C)(=O)=O)CC2)c(Cl)c1-c1cnc(NC(C)(C)CC(F)(F)F)cc1C(F)F [Example 97, 4-Chloro-5-(4-(difluoromethyl)-6-((4,4,4-trifluoro-2-methylbutan-2-yl)amino)pyridin-3-yl)-1-ethyl-N-(((1s,4s)-1-hydroxy-4-(methylsulfonyl)cyclohexyl)methyl)-1H-pyrazole-3-carboxamide] | 0.0033 µM | –
5 | CCn1nc(C(=O)NC[C@]2(O)CC[C@@H](S(C)(=O)=O)CC2)c(Cl)c1-c1cnc(NC(C)(C)CC(F)(F)F)cc1OC(F)F [Example 15, 4-Chloro-5-(4-(difluoromethoxy)-6-((4,4,4-trifluoro-2-methylbutan-2-yl)amino)pyridin-3-yl)-1-ethyl-N-(((1s,4s)-1-hydroxy-4-(methylsulfonyl)cyclohexyl)methyl)-1H-pyrazole-3-carboxamide] | 0.0062 µM | –
6 | CC(=O)Nc1nc(C)c(S(=O)(=O)Nc2ccc(C(O)(C(F)(F)F)C(F)(F)F)cc2)s1 [SR1001] | – | Th17-dependent learned helplessness [2]: reduced Th17-dependent learned helplessness
7 | CCn1nc(C(=O)NC[C@]2(O)CC[C@@H](S(C)(=O)=O)CC2)c(C)c1-c1cnc(NC(C)(C)CC(F)(F)F)cc1OC(F)F [Example 1, 5-(4-(Difluoromethoxy)-6-((4,4,4-trifluoro-2-methylbutan-2-yl)amino)pyridin-3-yl)-1-ethyl-N-(((1s,4s)-1-hydroxy-4-(methylsulfonyl)cyclohexyl)methyl)-4-methyl-1H-pyrazole-3-carboxamide] | 0.0066 µM | –
8 | CC(=O)N1CCN(Cc2ccc(-c3ccc(C(O)(C(F)(F)F)C(F)(F)F)cc3)cc2)CC1 [SR1555] | – | body weight (obese diabetic mice): reduced body weight; fat mass (obese diabetic mice): significant reduction in fat mass; food intake (obese diabetic mice): modest reduction in food intake; insulin sensitivity (obese diabetic mice): improved insulin sensitivity
9 | CCn1nc(C(=O)NC[C@H]2CC[C@H](S(C)(=O)=O)CC2)c(Cl)c1-c1cnc(N[C@H](C)C(F)(F)F)cc1OC [Example 98, 4-Chloro-1-ethyl-5-(4-methoxy-6-(((R)-1,1,1-trifluoropropan-2-yl)amino)pyridin-3-yl)-N-(((1r,4R)-4-(methylsulfonyl)cyclohexyl)methyl)-1H-pyrazole-3-carboxamide] | 0.14 µM | –
